Columns and labels:
[1] = biological target: T1, human GIP receptor (Homo sapiens, UniProt P48546); experiment: Competitive binding assay with 125I-labelled GIP radioligands, COS-7 cells transfected with human GIP receptor (Example 7); settings: for fold change GIP(1-30)NH2 / Competitive binding fold (fold change of GIP(1-30)NH2 affinity): relative to GIP(1-30)NH2; for Competitive binding fold (fold change of GIP(1-30)NH2 affinity): radioligand 125I-GIP(1-42)
T1 construct: host or cells: COS-7 cells, transient transfection (calcium phosphate precipitation), pCMV-Script vector
T1 sequence (P48546 22-466): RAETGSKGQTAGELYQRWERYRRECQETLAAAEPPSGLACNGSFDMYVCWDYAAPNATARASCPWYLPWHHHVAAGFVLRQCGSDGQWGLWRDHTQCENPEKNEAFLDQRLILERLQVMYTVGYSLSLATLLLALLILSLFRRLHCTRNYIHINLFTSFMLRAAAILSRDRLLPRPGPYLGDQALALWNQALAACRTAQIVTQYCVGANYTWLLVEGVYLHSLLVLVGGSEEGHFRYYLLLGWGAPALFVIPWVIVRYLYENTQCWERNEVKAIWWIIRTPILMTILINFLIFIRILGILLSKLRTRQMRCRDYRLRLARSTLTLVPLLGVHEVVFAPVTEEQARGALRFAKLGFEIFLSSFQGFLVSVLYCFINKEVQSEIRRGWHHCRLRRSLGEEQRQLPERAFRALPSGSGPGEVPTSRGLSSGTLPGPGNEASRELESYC
Procedure: Transfection of COS-7 cells was performed using the calcium phosphate precipitation method with chloroquine addition as previously described (Kissow et al., 2012). […] Nonspecific binding was determined as the binding of radioligand to untransfected cells. All determinations were made in duplicates, and all experiments repeated at least three times. The samples were analyzed for radioactivity using a Wallac Wizard 1470 Gamma Counter (GMI Inc., Minnesota, USA). The number “n” refers to individual experiments with separate transfections although from same cell line. IC50, EC50, and Kd/Ki values were determined by nonlinear regression. […] Statistical analyses (unpaired t-tests) of two parameters were also performed with GraphPad Prism 6.0. The calculations of Bmax and Ki values were based on the formula for one class of binding sites in homologous competition binding studies and the Cheng Prussoffs formula, respectively (DeBlasi et al., 1989). Kd is the dissociation constant determined by homologous receptor binding. […] Schild plots were performed with log (DR-1) (ordinate) and log(antagonist concentration) (abscissa) to estimate the slopes and Ki values (Lazareno and Birdsall, 1993).

[2] = biological target: T1, human GIP receptor; experiment: cAMP accumulation assay (agonism, antagonism, Schild analysis), COS-7 cells transfected with human GIP receptor (Example 7); type: cell-based; settings: for Slope of Schild plot: GIP(1-42) dose-response curves with fixed antagonist concentrations
Procedure: COS-7 cells were grown in 10% CO2 and at 37° C. in Dulbecco's modified Eagle's medium 1885 supplemented with 10% fetal bovine serum, 2 mM glutamine, 180 units/ml penicillin, and 45 µg/ml streptomycin. Transfection of COS-7 cells was performed using the calcium phosphate precipitation method with chloroquine addition as previously described (Kissow et al., 2012).
Two days after transfection the cells were washed once with HEPES buffered saline (HBS) and incubated with HBS and 0.5 mM 3-isobutyl-1-methylxanthine (IBMX) for 30 minutes at 37° C. […] After ligand incubation, the HitHunter™ cAMP XS assay (an enzyme fragment complementation-based assay, DiscoveRx, Birmingham, United Kingdom) was carried out according to the manufacturer's instructions. All experiments were made in duplicates, and repeated at least three times. Luminescence was measured by Perkin Elmer™ EnVision 2104 Multilabled reader (Skovlunde, Danmark). In brief, the cells were lysed in the wells, the enzyme fragment-cAMP-antibody, an enzyme fragment and the enzyme substrates were added followed by 1 hour incubation at room temperature on shaker tray. The other enzyme fragment was added to the wells and incubated for 4 hours on shaker tray followed by measurements of luminescence. The ligand-induced cAMP competed with the binding of antibody to the first enzyme fragment and left the two fragments to fuse. The enzyme complex hydrolyzed the substrates and yielded luminescence. The number “n” refers to individual experiments with separate transfections although from same cell line.
IC50, EC50, and Kd/Ki values were determined by nonlinear regression. These, as well as maximal binding capacity (Bmax) values and Schild plot analysis were carried out with the GraphPad Prism 6.0 software (GraphPad, San Diego, Calif., USA) and Microsoft Excel™. Statistical analyses (unpaired t-tests) of two parameters were also performed with GraphPad Prism 6.0. The calculations of Bmax and Ki values were based on the formula for one class of binding sites in homologous competition binding studies and the Cheng Prussoffs formula, respectively (DeBlasi et al., 1989). Kd is the dissociation constant determined by homologous receptor binding. […] Schild plots were performed with log (DR-1) (ordinate) and log(antagonist concentration) (abscissa) to estimate the slopes and Ki values (Lazareno and Birdsall, 1993).

[3] = test system: perfused rat pancreata; experiment: Somatostatin secretion from isolated perfused rat pancreas; settings: 1 nM hGIP or 100 nM GIP(3-30), 7 mM glucose
Procedure: Non-fasted rats were anaesthetized with an IP injection of Hypnorm/Dormicum and the pancreas was dissected and perfused in situ. […] All other aortic branches were ligated. The venous effluent was collected for 1 min intervals via an obstructing cannula inserted into the portal vein, and stored at −20° C. until analysis. The flow rate was kept constant at 4 ml/min. The perfusion medium was continuously gassed with a 95% O2/5% CO2 mixture to achieve pH 7.4, and maintained at 37° C. during the entire experiment.
Pancreatic somatostatin concentrations in venous effluent were analysed by RIA. Somatostatin immunoreactivity was determined using antiserum 1758, which was raised in rabbits against synthetic cyclic somatostatin and recognizes both somatostatin-14 and somatostatin-28 [37, 38].

[4] = inhibition of GIP(1-42) at 50-80% of max receptor activation

| Structure (SMILES) | IC50 ([1]; radioligand 125I-GIP(1-30)NH2) [nM] | fold change GIP(1-30)NH2 ([1]; radioligand 125I-GIP(1-30)NH2) [fold] | Competitive binding fold (fold change of GIP(1-30)NH2 affinity) [1] [fold] | IC50 ([1]; radioligand 125I-GIP(2-30)NH2) [nM] | fold change GIP(1-30)NH2 ([1]; radioligand 125I-GIP(2-30)NH2) [fold] | IC50 ([1]; radioligand 125I-GIP(3-30)NH2) [nM] | fold change GIP(1-30)NH2 ([1]; radioligand 125I-GIP(3-30)NH2) [fold] | Slope of Schild plot [2] | Fold lower agonist potency than GIP(1-30)NH2 ([2]; agonist mode) [fold] | Intrinsic agonistic activity in cAMP accumulation ([2]; agonist mode) | log EC50, cAMP accumulation ([2]; agonist mode, given with negative sign) | IC50 [2, 4] [nM] | Somatostatin secretion induced by the peptide alone [3] | cAMP accumulation logIC50 ± SEM (antagonism) ([2]; inhibition of GIP(1-42) at 50-80% of max receptor activation, given with negative sign) | Type of antagonism (Schild analysis) [2] |
| --- | --- | --- | --- | --- | --- | --- | --- | --- | --- | --- | --- | --- | --- | --- | --- |
| CC[C@H](C)[C@H](NC(=O)[C@H](CO)NC(=O)[C@H](Cc1ccc(O)cc1)NC(=O)[C@H](CC(=O)O)NC(=O)[C@H](CO)NC(=O)[C@@H](NC(=O)[C@H](Cc1ccccc1)NC(=O)[C@@H](NC(=O)CNC(=O)[C@H](CCC(=O)O)NC(=O)[C@H](C)N)[C@@H](C)O)[C@@H](C)CC)C(=O)N[C@@H](C)C(=O)N[C@@H](CCSC)C(=O)N[C@@H](CC(=O)O)C(=O)N[C@@H](CCCCN)C(=O)N[C@H](C(=O)N[C@@H](Cc1c[nH]cn1)C(=O)N[C@@H](CCC(N)=O)C(=O)N[C@@H](CCC(N)=O)C(=O)N[C@@H](CC(=O)O)C(=O)N[C@@H](Cc1ccccc1)C(=O)N[C@H](C(=O)N[C@@H](CC(N)=O)C(=O)N[C@@H](Cc1c[nH]c2ccccc12)C(=O)N[C@@H](CC(C)C)C(=O)N[C@@H](CC(C)C)C(=O)N[C@@H](C)C(=O)N[C@@H](CCC(N)=O)C(=O)N[C@@H](CCCCN)C(N)=O)C(C)C)[C@@H](C)CC [GIP(2-30)NH2] | 26 | 84.3 | 16 | 2.7 | 10.5 | 7.7 | 4.6 | 0.49±0.14 | > 3000 | weak partial agonist | −8.43±0.33 | 21.7 | – | – | – |
| CC[C@H](C)[C@H](NC(=O)[C@H](CO)NC(=O)[C@H](Cc1ccc(O)cc1)NC(=O)[C@H](CC(=O)O)NC(=O)[C@H](CO)NC(=O)[C@@H](NC(=O)[C@H](Cc1ccccc1)NC(=O)[C@@H](NC(=O)CNC(=O)[C@H](CCC(=O)O)NC(=O)[C@H](C)NC(=O)[C@@H](N)Cc1ccc(O)cc1)[C@@H](C)O)[C@@H](C)CC)C(=O)N[C@@H](C)C(=O)N[C@@H](CCSC)C(=O)N[C@@H](CC(=O)O)C(=O)N[C@@H](CCCCN)C(=O)N[C@H](C(=O)N[C@@H](Cc1c[nH]cn1)C(=O)N[C@@H](CCC(N)=O)C(=O)N[C@@H](CCC(N)=O)C(=O)N[C@@H](CC(=O)O)C(=O)N[C@@H](Cc1ccccc1)C(=O)N[C@H](C(=O)N[C@@H](CC(N)=O)C(=O)N[C@@H](Cc1c[nH]c2ccccc12)C(=O)N[C@@H](CC(C)C)C(=O)N[C@@H](CC(C)C)C(=O)N[C@@H](C)C(=O)N[C@@H](CCC(N)=O)C(=O)N[C@@H](CCCCN)C(=O)NCC(=O)N[C@@H](CCCCN)C(=O)N[C@@H](CCCCN)C(=O)N[C@@H](CC(N)=O)C(=O)N[C@@H](CC(=O)O)C(=O)N[C@@H](Cc1c[nH]c2ccccc12)C(=O)N[C@@H](CCCCN)C(=O)N[C@@H](Cc1c[nH]cn1)C(=O)N[C@@H](CC(N)=O)C(=O)N[C@H](C(=O)N[C@H](C(=O)N[C@@H](CCC(N)=O)C(=O)O)[C@@H](C)O)[C@@H](C)CC)C(C)C)[C@@H](C)CC [GIP(1-42)] | – | – | – | – | – | – | – | – | – | – | – | – | robust somatostatin secretion | – | – |
| CC[C@H](C)[C@H](NC(=O)[C@H](CO)NC(=O)[C@H](Cc1ccc(O)cc1)NC(=O)[C@H](CC(=O)O)NC(=O)[C@H](CO)NC(=O)[C@@H](NC(=O)[C@@H](N)Cc1ccccc1)[C@@H](C)CC)C(=O)N[C@@H](C)C(=O)N[C@@H](CCSC)C(=O)N[C@@H](CC(=O)O)C(=O)N[C@@H](CCCCN)C(=O)N[C@H](C(=O)N[C@@H](Cc1c[nH]cn1)C(=O)N[C@@H](CCC(N)=O)C(=O)N[C@@H](CCC(N)=O)C(=O)N[C@@H](CC(=O)O)C(=O)N[C@@H](Cc1ccccc1)C(=O)N[C@H](C(=O)N[C@@H](CC(N)=O)C(=O)N[C@@H](Cc1c[nH]c2ccccc12)C(=O)N[C@@H](CC(C)C)C(=O)N[C@@H](CC(C)C)C(=O)N[C@@H](C)C(=O)N[C@@H](CCC(N)=O)C(=O)N[C@@H](CCCCN)C(N)=O)C(C)C)[C@@H](C)CC [GIP(6-30)NH2, reference compound] | – | 3502 | – | 340 | 707 | 370 | 223 | 0.38±0.13 | – | – | – | 342 | – | −6.47 ± 0.6 | – |
| CC[C@H](C)[C@H](NC(=O)[C@H](CO)NC(=O)[C@H](Cc1ccc(O)cc1)NC(=O)[C@H](CC(=O)O)NC(=O)[C@H](CO)NC(=O)[C@@H](NC(=O)[C@H](Cc1ccccc1)NC(=O)[C@@H](N)[C@@H](C)O)[C@@H](C)CC)C(=O)N[C@@H](C)C(=O)N[C@@H](CCSC)C(=O)N[C@@H](CC(=O)O)C(=O)N[C@@H](CCCCN)C(=O)N[C@H](C(=O)N[C@@H](Cc1c[nH]cn1)C(=O)N[C@@H](CCC(N)=O)C(=O)N[C@@H](CCC(N)=O)C(=O)N[C@@H](CC(=O)O)C(=O)N[C@@H](Cc1ccccc1)C(=O)N[C@H](C(=O)N[C@@H](CC(N)=O)C(=O)N[C@@H](Cc1c[nH]c2ccccc12)C(=O)N[C@@H](CC(C)C)C(=O)N[C@@H](CC(C)C)C(=O)N[C@@H](C)C(=O)N[C@@H](CCC(N)=O)C(=O)N[C@@H](CCCCN)C(N)=O)C(C)C)[C@@H](C)CC [GIP(5-30)NH2] | – | – | 6.6 | – | – | – | – | 1.1±0.04 | – | – | – | 11.9 | – | – | pure competitive antagonists |

Source: patent US10968266B2, “GIP peptide analogues” (University of Copenhagen, priority 2014, dated 2021)
